Holding throughout (type): in vitro ADME
A short description of data set [1]: Microplate fluorogenic CuAAC liposomal permeation assay (CF-N3-loaded SUVs). Conditions: for Permeation in liposomal assay: reaction with liposomal CF-N3 (in words): real-time fluorogenic CuAAC. The procedure: DOPC or DOPG (10 mg/mL, 500 μL) were pipetted into a scintillation vial (20 mL), or DOPC (10 mg/mL, 400 μL) and POPC (10 mg/mL, 100 μL) were pipetted into a scintillation vial (20 mL). Samples were dried under argon then evaporatively dried in a vacuum desiccator (16 h). Degassed PBS buffer was combined with CF-N3 probe (1, 4, or 20 μM final) and ascorbic acid (AA, 10 mM). Lipid film was resuspended using degassed probe/AA/PBS buffer solution (1 mL), and the vial was incubated on a hot plate (15 min, 37 °C) with gentle vortexing (every 5 min). Lipid suspension was sonicated (1 min, Branson 3510 DTH ultrasonic cleaner) followed by rest (1 min), repeating 9 additional times. Liposomes were generated by extrusion (11 passages, 100 nm polycarbonate membrane, Mini-Extruder, Avanti Polar Lipids). Liposome solution was loaded into dialysis cassettes (10K MWCO, 3 mL Slide-A-Lyzer) and incubated in PBS buffer (1 L, 16 h, 4 °C). Liposome size distributions and stability were analyzed by dynamic light scattering (DLS, Zetasizer Nano ZS, Malvern Panalytical, United Kingdom).
The same protocol was followed to produce and characterize liposomes with other lipid compositions. DOPC (10 mg/mL, 400 μL), POPC (10 mg/mL, 100 μL), and cholesterol (5 mg/mL, 50/100 μL for 10%/20% mole of cholesterol, respectively) were combined, dried, and rehydrated with probe solution in scintillation vials. Brain polar lipid extract (25 mg/mL, 200 μL) or E. coli polar lipid extract (25 mg/mL, 200 μL) were dried and rehydrated with probe solution in scintillation vials.
CuSO4 (4 mg) was dissolved in DI H2O (500 μL, 50 mM), L-ascorbic acid (8.8 mg) was dissolved in PBS (500 μL, 100 mM), TBTA (2.7 mg) was dissolved in DMSO (509 μL, 10 mM), and mPEG17/mPEG8/mPEG4/PEG4s/propargyl amine/Cyc1–4 stock solutions (50 mM, with the purity > 95% by HPLC analysis) were prepared in DMSO, and CF-N3 was dissolved in DMSO (2 mM). Fluorogenic CuAAC reaction premixture was prepared by combining CuSO4 (10 μL) and TBTA (8 μL) in PBS (982 μL). Alkyne analytes were diluted (0.1 mM in CuAAC reaction premixture +2% DMSO). Free probe solution was prepared with CF-N3 (4 μM) and L-ascorbic acid (10 mM) in PBS buffer. Alkyne analyte in CuAAC premixture (5 μL) or CuAAC premixture +2% DMSO (5 μL) blank sample was combined with liposome (5 μL) or free probe solution (5 μL) in microtiter plate wells (384-well, Greiner, Thermo Scientific). Transient assay fluorescence (λex/λem = 488/530 nm) was detected using a multimode plate reader (CLARIOstar, BMG). Fluorescence fold gain was calculated by dividing the sample fluorescence by blank fluorescence. Initial velocities (V0) were obtained by linear regression analysis of the fluorescence fold gain after the initial lag period.
Assays were assembles as described above, combining liposomal probe (5 μL; 4 μ M CF-N3, 10 mM ascorbic acid, E. coli lipid SUV) with alkyne sample (5 μL) but with varying concentrations of mPEG4, mPEG8, mPEG17, and PEG4s (0.0001/0.001/0.005/0.01/0.05/0.1/0.5/1/5 mM) or Cyc1–4 (0.0001/0.001/0.005/0.01/0.05/0.1/0.5 mM). Broken liposomal V0 was obtained by combining liposomal probe (5 μL) with Triton X-100 solution (0.42 μL, 10% w/v), then adding the highest concentration sample for each alkyne (5 μL; 0.5 mM Cyc1–4 or 5 mM PEG samples). Transient assay fluorescence (λex/λem = 488/530 nm) was detected using a multimode plate reader (CLARIOstar). Each [alkyne] V0 was divided by the corresponding broken liposome maximum [alkyne] V0,broken. These normalized data were fit to a sigmoid to determine the [alkyne] at which V0/V0,broken was 50% maximum (PC50).

Data set [2] is described as follows: Parallel artificial membrane permeability assay (PAMPA), egg lecithin in dodecane. The conditions noted are these: for Permeability class of control alkynes: control alkynes' permeabilities measured previously (ref 38) or via PAMPA (SI Table S1). The procedure:
A modified PAMPA was used for compound permeability measurements and was performed by Pharmaron. Briefly, alkyne stock solution (1 mM in DMSO) was diluted (50 μM final in PBS, pH 7.4). The lipid solution (1.8% w/v egg lecithin in dodecane, 5 μL spotting volume) was added to each acceptor well of the multiscreen-IP filter plate. PBS (300 μL) was added to all wells of the acceptor plate, and diluted alkyne stock (300 μL) was added to the wells of the donor plate in triplicate. The plate was assembled and incubated (16 h, 37 °C). An aliquot of donor well sample (2.5 μL) was diluted in PBS (47.5 μL), and an aliquot of the acceptor well (50 μL) was transferred to a 96-well analysis plate. Internal standard (100 nM alprazolam, 200 nM caffeine, 200 nM diclofenac in 100% MeOH) was added to all samples. Samples were vortexed and centrifuged (20 min, 3220g), then analyzed by LC-MS/MS.
The effective permeability (Pe) was calculated as [drawing 1] 1 [drawing 2] 2 where VD is the donor compartment volume (0.3 mL), VA is the acceptor compartment volume (0.3 mL), A is the filter area (0.24 cm^2), and t is the time (16 h).
On the technique in general: The PAMPA barrier holds no transporters, so it reflects passive diffusion.

Data set [3] is described as follows: Microfluidic droplet-scale liposomal permeation assay of photocleaved control beads. Conditions: photocleaved from control beads on-chip by UV, E. coli polar lipid SUVs, 9% dextran. The procedure: Microfluidic droplet-based screening was performed in a UV-free room as previously described.[37],[47] Briefly, perfluorous oil phase (Novec 7500) with stabilizer (4% Pico-Surf) was loaded into a syringe (1 mL, BD Tuberculin, BD Medical, Franklin Lakes, NJ) fitted with blunt-end needle (30 gauge QuantX, Fisnar, Germantown, WI) and connected to the microfluidic device OIL1 inlet via Tygon microbore tubing (0.01” I.D. × 0.03” O.D. × I.D., United States Plastic Corp.). Aqueous inputs (AQ1 and AQ2, see below) were loaded into the syringes and connected to AQ inlets of the microfluidic device. Novec 7500 was loaded into syringes (10 mL) and similarly connected to the device via Tygon microbore tubing as spacing oil (OIL2) and flow focusing oil (OIL3). The incubation channel was primed with Novec 7500 by filling from the OIL2 and OIL3 inputs before initiating flows from OIL1 and AQ inlets. OIL and AQ flows were driven by syringe pumps (Legato 101, KD Scientific, Holliston, MA): AQ1 (400 nL/min) AQ2 (400 nL/min), OIL1 (500 nL/min), OIL2 (16 μ L/min), and OIL3 (6 μL/min). […]
Fluorescence data were acquired using a custom confocal laser-induced fluorescence detection system. Droplets were detected based on internal standard (cTMR) signal in PMT 2 as previously described.[36] CF-N3 probe fluorescence was detected in PMT 1. […] Once a droplet was detected, the average PMT 1 signal was calculated. […]

[4] abbreviates: multiple SUV lipid formulations.

Structures are written as SMILES. Starred links: 1 amine or outer side, 2 acyl side, 3 side chain; linkers in the order of their positions; H or OH if unused. Positions of bridges follow the written chain, without caps; N, C: chain ends. Non-standard residues stand in square brackets, D forms with d. Residues, ends and D or L forms follow the SMILES beside them. oXylylene = c1ccc(C[*:2])c(C[*:1])c1; Pra = C#CC[C@H](N)C(=O)O Bounds are passed on as bounds.

As for `C#CC[C@H](NC(=O)[C@H](Cc1c[nH]cn1)NC(=O)[C@H](Cc1c[nH]c2ccccc12)NC(=O)[C@@H](NC(=O)[C@H](Cc1c[nH]cn1)NC(=O)[C@H](Cc1ccccc1)NC(=O)[C@H]1CSCc2ccccc2CSC[C@@H](NC(=O)[C@@H](N)C(C)C)C(=O)N[C@@H](CC(N)=O)C(=O)N[C@@H](C)C(=O)N1)[C@@H](C)CC)C(N)=O` [DD5o] (H-V[dC]NA[dC]FHIWH[Pra]-NH2; linker 2-5 via oXylylene), in data set [1] (DOPG vesicles, PPA and PEG4s as controls (SI Figure S5)), the “Permeation in liposomal permeation assay (in words)” value is on record as “permeable”.
Regarding `C#CCOCCOCCOCCOCCS(=O)(=O)O` [PEG4s, propargyl-PEG4-sulfonic acid], in data set [2], the “Permeability class of control alkynes” value was “impermeable”.
For `C#CCN` [PPA, propargylamine], in data set [1] (CF-N3-loaded DOPC-POPC SUVs), the “Lag before reaching steady V0 in reaction with liposomal CF-N3” value was about 10 min and the “Permeation in liposomal assay: reaction with liposomal CF-N3 (in words)” value was “reacted”. Moreover, the “Permeability class of control alkynes” value in data set [2] is recorded as “permeable”.
For `C#CCNC(=O)C(N)C(C)C` (stereo not drawn) [PPA–V, valine-N-propargylamide], the “Permeation in droplet-scale liposomal permeation assay (in words)” value in data set [3] is “permeable”.
Consider `C#CCOCCOCCOCCOC` [mPEG4, m-PEG4-propargyl], for which, in data set [1] (setting [4]), the “Permeation in liposomal permeation assay (in words)” value was “readily permeated”.
The same measure, in the same setting: in the case of `C#CCOCCOCCOCCOCCOCCOCCOCCOC` [mPEG8, m-PEG8-propargyl] it was “readily permeated”.
Regarding `C#CCOCCOCCOCCOCCOCCOCCOCCOCCOCCOCCOCCOCCOCCOCCOCCOCCOC` [mPEG17, propargyl-PEG17-methane], the “Permeation in liposomal assay: reaction with liposomal CF-N3 (in words)” value in data set [1] (CF-N3-loaded DOPC-POPC SUVs) is “undetectable”. Also, the “Permeation in liposomal permeation assay (in words)” value in data set [1] (setting [4]) is given as “largely impermeable”. Moreover, in data set [2], the “Permeability class of control alkynes” value is listed as “impermeable”. Also, in data set [2] (egg lecithin PAMPA, 50 μM, PBS pH 7.4, 16 h, 37 °C, read-out: PAMPA Pe), the Papp at 16 h, 50 μM was over 0.004 ×10⁻⁶ cm/s.

Values taken from publication PMC10184116, “Liposomal Permeation Assay for Droplet-Scale Pharmacokinetic Screening” (Journal of Medicinal Chemistry, 2023).
